In patent US12065436B2, “Cardiac sarcomere inhibitors” (Cytokinetics, Inc., priority 2018, dated 2024):

Biological target: bovine cardiac myofibrils (full-length cardiac myosin ATPase in the native sarcomere) (Bos taurus (Bovine), UniProt Q9BE39)
Test: Skinned bovine cardiac myofibril ATPase assay (PK/LDH-coupled)
Type: biochemical
Details: Ca2+ activating to 75% of maximal rate; for CDMF75 IC15: concentration giving 15% inhibition; for IC50: read-out: CDMF75 IC50
How it was run: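 Inhibition of steady-state ATPase read at 340 nm through a PK/LDH-coupled NADH system (0.5 mM NADH, 1.5 mM PEP). Detergent-skinned bovine cardiac myofibrils, 1 mg/mL, were tested at pH 6.8 in PIPES/MgCl2 with 50 μM ATP and calcium adjusted to give pCa50 or pCa75 activation.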

bovine cardiac myofibrils (full-length cardiac myosin ATPase in the native sarcomere), sequence (Q9BE39 whole entry): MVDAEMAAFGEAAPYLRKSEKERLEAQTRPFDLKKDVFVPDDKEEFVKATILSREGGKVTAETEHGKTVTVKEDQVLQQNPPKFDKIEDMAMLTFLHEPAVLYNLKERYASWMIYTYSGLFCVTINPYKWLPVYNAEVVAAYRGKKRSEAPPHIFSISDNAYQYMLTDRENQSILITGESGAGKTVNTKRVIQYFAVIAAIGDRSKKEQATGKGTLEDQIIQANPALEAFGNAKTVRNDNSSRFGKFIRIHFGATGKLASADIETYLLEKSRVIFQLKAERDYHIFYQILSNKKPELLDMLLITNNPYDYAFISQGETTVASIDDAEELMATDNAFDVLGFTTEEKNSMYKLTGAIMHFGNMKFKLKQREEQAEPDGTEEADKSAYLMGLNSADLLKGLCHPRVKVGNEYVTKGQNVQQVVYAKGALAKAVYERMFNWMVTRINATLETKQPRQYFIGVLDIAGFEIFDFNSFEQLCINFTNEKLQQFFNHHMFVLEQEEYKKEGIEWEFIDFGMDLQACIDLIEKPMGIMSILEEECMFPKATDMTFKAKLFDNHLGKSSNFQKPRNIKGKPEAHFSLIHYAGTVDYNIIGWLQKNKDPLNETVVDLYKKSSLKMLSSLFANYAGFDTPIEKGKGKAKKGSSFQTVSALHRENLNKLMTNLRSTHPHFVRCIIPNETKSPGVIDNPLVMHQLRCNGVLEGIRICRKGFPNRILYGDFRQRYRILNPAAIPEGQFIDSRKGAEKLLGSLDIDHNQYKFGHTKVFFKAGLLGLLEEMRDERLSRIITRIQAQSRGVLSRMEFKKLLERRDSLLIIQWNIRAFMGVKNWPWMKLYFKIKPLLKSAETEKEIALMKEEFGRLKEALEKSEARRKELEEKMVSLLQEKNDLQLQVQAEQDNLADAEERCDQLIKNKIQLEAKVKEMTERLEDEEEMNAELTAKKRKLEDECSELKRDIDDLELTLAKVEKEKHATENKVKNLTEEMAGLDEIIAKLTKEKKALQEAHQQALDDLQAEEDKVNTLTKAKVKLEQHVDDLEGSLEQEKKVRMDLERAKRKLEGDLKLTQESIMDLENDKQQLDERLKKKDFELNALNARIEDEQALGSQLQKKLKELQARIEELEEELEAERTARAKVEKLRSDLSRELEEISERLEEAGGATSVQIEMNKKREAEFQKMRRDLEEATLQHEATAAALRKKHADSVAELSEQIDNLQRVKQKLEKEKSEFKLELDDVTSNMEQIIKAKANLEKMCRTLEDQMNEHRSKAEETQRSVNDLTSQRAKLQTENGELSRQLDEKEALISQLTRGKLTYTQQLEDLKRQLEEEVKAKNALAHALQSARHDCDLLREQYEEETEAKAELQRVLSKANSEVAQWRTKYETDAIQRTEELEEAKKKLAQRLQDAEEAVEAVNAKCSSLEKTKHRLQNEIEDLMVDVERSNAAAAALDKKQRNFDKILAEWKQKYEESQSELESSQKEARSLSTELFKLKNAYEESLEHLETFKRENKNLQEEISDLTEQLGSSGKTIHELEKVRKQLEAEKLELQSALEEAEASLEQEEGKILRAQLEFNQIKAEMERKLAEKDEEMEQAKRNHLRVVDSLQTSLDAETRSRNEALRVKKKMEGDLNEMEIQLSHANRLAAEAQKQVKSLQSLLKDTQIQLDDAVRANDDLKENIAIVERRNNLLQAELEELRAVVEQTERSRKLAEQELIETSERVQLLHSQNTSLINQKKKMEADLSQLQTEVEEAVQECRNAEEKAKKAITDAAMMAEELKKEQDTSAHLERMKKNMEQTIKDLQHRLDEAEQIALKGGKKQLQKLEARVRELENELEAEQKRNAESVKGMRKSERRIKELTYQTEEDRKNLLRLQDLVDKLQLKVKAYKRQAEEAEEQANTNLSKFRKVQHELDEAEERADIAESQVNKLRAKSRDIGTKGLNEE
bovine cardiac myofibrils (full-length cardiac myosin ATPase in the native sarcomere), sequence (P85100 whole entry partner): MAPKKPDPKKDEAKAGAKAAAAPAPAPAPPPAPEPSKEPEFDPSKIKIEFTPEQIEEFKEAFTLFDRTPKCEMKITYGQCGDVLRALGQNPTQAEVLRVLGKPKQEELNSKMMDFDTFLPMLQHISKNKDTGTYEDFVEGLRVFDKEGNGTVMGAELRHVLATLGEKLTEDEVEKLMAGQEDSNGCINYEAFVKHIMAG
bovine cardiac myofibrils (full-length cardiac myosin ATPase in the native sarcomere), sequence (Q3SZE5 whole entry partner): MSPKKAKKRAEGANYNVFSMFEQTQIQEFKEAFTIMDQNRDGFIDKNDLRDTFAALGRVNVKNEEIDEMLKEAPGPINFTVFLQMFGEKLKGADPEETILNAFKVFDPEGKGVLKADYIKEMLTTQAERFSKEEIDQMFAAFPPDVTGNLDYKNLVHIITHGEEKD

With COCc1nc(-c2ccc3c(c2)CC[C@H]3NC(=O)c2cc(C)nn2C)no1 [Compound 179, (R)-N-(5-(5-(methoxymethyl)-1,2,4-oxadiazol-3-yl)-2,3-dihydro-1H-inden-1-yl)-1,3-dimethyl-1H-pyrazole-5-carboxamide] the “CDMF75 IC15” value was 700 nM and the IC50 was 2200 nM.

For Cc1nc(C(=O)NC2CCc3cc(-c4noc(C)n4)ccc32)no1 (stereo not drawn) [Compound 87, 5-methyl-N-(5-(5-methyl-1,2,4-oxadiazol-3-yl)-2,3-dihydro-1H-inden-1-yl)-1,2,4-oxadiazole-3-carboxamide], the “CDMF75 IC15” value was 3700 nM and the IC50 was 15700 nM.

With Cc1c(C(=O)N[C@@H]2CCc3cc(-c4noc(C(F)F)n4)ccc32)cnn1CCO [Compound 675, (R)-N-(5-(5-(difluoromethyl)-1,2,4-oxadiazol-3-yl)-2,3-dihydro-1H-inden-1-yl)-1-(2-hydroxyethyl)-5-methyl-1H-pyrazole-4-carboxamide] the “CDMF75 IC15” value was 800 nM and the IC50 was 2700 nM.

For CCc1nc(-c2ccc3c(c2)CC[C@H]3NC(=O)c2ncncc2C)no1 [Compound 643, (R)-N-(5-(5-ethyl-1,2,4-oxadiazol-3-yl)-2,3-dihydro-1H-inden-1-yl)-5-methylpyrimidine-4-carboxamide], the “CDMF75 IC15” value was 600 nM and the IC50 was 2100 nM.

In the case of Cc1nc(-c2ccc3c(c2)OC[C@H]3NC(=O)c2cccc([C@@H](C)O)c2)no1 [Compound 735, 3-((R)-1-hydroxyethyl)-N-((S)-6-(5-methyl-1,2,4-oxadiazol-3-yl)-2,3-dihydrobenzofuran-3-yl)benzamide], the “CDMF75 IC15” value is reported as 1600 nM and the IC50 is reported as 8500 nM.

With Cc1nc(-c2ccc3c(c2)CC[C@H]3NC(=O)c2cn(C)nc2C)no1 [Compound 111, (R)-1,3-dimethyl-N-(5-(5-methyl-1,2,4-oxadiazol-3-yl)-2,3-dihydro-1H-inden-1-yl)-1H-pyrazole-4-carboxamide] the “CDMF75 IC15” value was 1100 nM and the IC50 was 3700 nM.

With O=C(NC1CCc2cc(-c3noc(C(F)F)n3)ccc21)c1cn[nH]c1 (stereo not drawn) [Compound 50, N-(5-(5-(difluoromethyl)-1,2,4-oxadiazol-3-yl)-2,3-dihydro-1H-inden-1-yl)-1H-pyrazole-4-carboxamide] the “CDMF75 IC15” value was 1500 nM and the IC50 was 5200 nM.

With Cc1nc(-c2ccc3c(c2)CCC3NC(=O)c2ncnn2C)no1 (stereo not drawn) [Compound 120, 1-methyl-N-(5-(5-methyl-1,2,4-oxadiazol-3-yl)-2,3-dihydro-1H-inden-1-yl)-1H-1,2,4-triazole-5-carboxamide] the “CDMF75 IC15” value was 2400 nM and the IC50 was 9800 nM.

With CCc1noc(-c2ccc3c(c2)CC[C@H]3NC(=O)c2cnn(C)c2C)n1 [Compound 255, (R)-N-(5-(3-ethyl-1,2,4-oxadiazol-5-yl)-2,3-dihydro-1H-inden-1-yl)-1,5-dimethyl-1H-pyrazole-4-carboxamide] the “CDMF75 IC15” value was 800 nM and the IC50 was 2600 nM.

Cc1noc(-c2ccc3c(c2)CC[C@H]3NC(=O)c2cnc(C)n2C)n1 [Compound 702, (R)-1,2-dimethyl-N-(5-(3-methyl-1,2,4-oxadiazol-5-yl)-2,3-dihydro-1H-inden-1-yl)-1H-imidazole-5-carboxamide] was tested, and the “CDMF75 IC15” value was 2600 nM and the IC50 was 11700 nM.

Cc1cc(C(=O)NC2CCc3cc(-c4noc(C(F)F)n4)ccc32)n(C)n1 (stereo not drawn) [Compound 30, N-(5-(5-(difluoromethyl)-1,2,4-oxadiazol-3-yl)-2,3-dihydro-1H-inden-1-yl)-1,3-dimethyl-1H-pyrazole-5-carboxamide] was tested, and the “CDMF75 IC15” value was 800 nM and the IC50 was 2300 nM.

In the case of Cn1nccc1C(=O)N[C@@H]1CCc2cc(-c3noc(C4(C)CC4)n3)ccc21 [Compound 459, (R)-1-methyl-N-(5-(5-(1-methylcyclopropyl)-1,2,4-oxadiazol-3-yl)-2,3-dihydro-1H-inden-1-yl)-1H-pyrazole-5-carboxamide], the “CDMF75 IC15” value is reported as 400 nM and the IC50 is reported as 1200 nM.
